Results published in patent US20170260178A1 (SPERO GYRASE, INC., priority 2012, published 2017).
≈ marks a conversion by molar mass, not a printed value.

How the values were obtained:
S. pyogenes (ATCC 51339) = assay: Bacterial assay: MIC against S. pyogenes; type: cell-based, Streptococcus pyogenes; settings: for MIC: Streptococcus pyogenes, ATCC51339, read-out: minimal inhibitory concentration (MIC)
S. aureus (ATCC 29213) = assay: Bacterial assay: MIC against S. aureus; type: cell-based, Staphylococcus aureus; settings: for minimal inhibitory concentration (MIC): S. aureus ATCC 29213; for MIC: Staphylococcus aureus, ATCC29213, read-out: minimal inhibitory concentration (MIC)

| Compound | minimal inhibitory concentration (MIC) (S. pyogenes (ATCC 51339); S. pyogenes ATCC 51339) | minimal inhibitory concentration (MIC) (S. aureus (ATCC 29213)) | MIC (S. pyogenes (ATCC 51339)) | MIC (S. aureus (ATCC 29213)) |
| --- | --- | --- | --- | --- |
| 1-ethyl-3-[7-[4-(4-ethylpiperazin-1-yl)pyridin-2-yl]-5-[2-(1-hydroxy-1-methyl-ethyl)pyrimidin-5-yl]-1,3-benzothiazol-2-yl]urea [Compound 79] | 2 µg/mL | 2 µg/mL | – | – |
| CCNC(=O)Nc1nc2cc(-c3cnc(C(C)(C)O)nc3)cc(-c3cc(CN4CC(C)(O)C4)ccn3)c2s1 [Compound 2, 1-ethyl-3-[7-[4-[(3-hydroxy-3-methyl-azetidin-1-yl)methyl]-2-pyridyl]-5-[2-(1-hydroxy-1-methyl-ethyl)pyrimidin-5-yl]-1,3-benzothiazol-2-yl]urea] | – | – | ≤ 1 µg/mL | ≤ 1 µg/mL |
| CCNC(=O)Nc1nc2cc(-c3cnc(C(C)(C)O)nc3)c(OCC3CCCO3)cc2s1 (stereo not shown) [Compound 3, 1-ethyl-3-[5-[2-(1-hydroxy-1-methyl-ethyl)pyrimidin-5-yl]-6-(tetrahydrofuran-2-ylmethoxy)-1,3-benzothiazol-2-yl]urea] | – | – | ≤ 1 µg/mL | ≤ 1 µg/mL |
| CCNC(=O)Nc1nc2cc(-c3ccc(C(O)c4cccnc4)nc3)c(F)cc2s1 (stereo not shown) [Compound 4, 1-ethyl-3-[6-fluoro-5-[6-[hydroxy(3-pyridyl)methyl]-3-pyridyl]-1,3-benzothiazol-2-yl]urea] | – | – | ≤ 1 µg/mL | ≤ 1 µg/mL |
| CC(C)(O)c1ncc(-c2cc(-c3ccccn3)c3sc(NC(=O)NCCO)nc3c2)cn1 [Compound 5, 1-(2-hydroxyethyl)-3-[5-[2-(1-hydroxy-1-methyl-ethyl)pyrimidin-5-yl]-7-(2-pyridyl)-1,3-benzothiazol-2-yl]urea] | – | – | ≤ 1 µg/mL | 16 µg/mL (≈ 35.5 µM) |
| CCNC(=O)Nc1nc2cc(-n3cc(C(C)O)nn3)cc(-c3ccccn3)c2s1 (stereo not shown) [Compound 9, 1-ethyl-3-[5-[4-(1-hydroxyethyl)triazol-1-yl]-7-(2-pyridyl)-1,3-benzothiazol-2-yl]urea] | – | – | ≤ 1 µg/mL | 8 µg/mL (≈ 19.5 µM) |
| CCNC(=O)Nc1nc2cc(-n3cnc(C(C)(C)O)c3)cc(-c3ccccn3)c2s1 [Compound 11, 1-ethyl-3-[5-[4-(1-hydroxy-1-methyl-ethyl)imidazol-1-yl]-7-(2-pyridyl)-1,3-benzothiazol-2-yl]urea] | – | – | ≤ 1 µg/mL | 4 µg/mL (≈ 9.47 µM) |
| CCNC(=O)Nc1nc2cc(-c3cnc(C(C)(C)O)nc3)cc(OC)c2s1 [Compound 12, 1-ethyl-3-[5-[2-(1-hydroxy-1-methyl-ethyl)pyrimidin-5-yl]-7-methoxy-1,3-benzothiazol-2-yl]urea] | – | – | ≤ 1 µg/mL | ≤ 1 µg/mL |
| CCNC(=O)Nc1nc2cc(-c3cnc(C(C)(C)O)nc3)cc(COC)c2s1 [Compound 13, 1-ethyl-3-[5-[2-(1-hydroxy-1-methyl-ethyl)pyrimidin-5-yl]-7-(methoxymethyl)-1,3-benzothiazol-2-yl]urea] | – | – | 2 µg/mL (≈ 4.98 µM) | ≤ 1 µg/mL |
| CCNC(=O)Nc1nc2cc(-c3cnc(N4CCC(C)(C(=O)O)CC4)nc3)cc(-c3ccc(C(C)(C)O)cn3)c2s1 [Compound 99, 1-[5-[2-(ethylcarbamoylamino)-7-[5-(1-hydroxy-1-methy-ethyl)-2-pyridyl]-1,3-benzothiazol-5-yl]pyrimidin-2-yl]-4-methyl-piperidine-4-carboxylic acid] | – | 2 µg/mL (≈ 3.47 µM) | – | – |
| CCNC(=O)Nc1nc2cc(-c3cnc(C4(O)CNC4)nc3)cc(-c3ccccn3)c2s1 [Compound 163, 1-ethyl-3-[5-[2-(3-hydroxyazetidin-3-yl)pyrimidin-5-yl]-7-(2-pyridyl)-1,3-benzothiazol-2-yl]urea] | – | – | 8 µg/mL (≈ 17.9 µM) | – |
| CCNC(=O)Nc1nc2cc(-c3cnc(C(C)O)nc3)c(N3CCOCC3)cc2s1 (stereo not shown) [Compound 194, 1-ethyl-3-[5-[2-[1-hydroxyethyl]pyrimidin-5-yl]-6-morpholino-1,3-benzothiazol-2-yl]urea] | – | – | – | 16 µg/mL (≈ 37.3 µM) |
| CCNC(=O)Nc1nc2cc(-c3cnc(C(C)(C)O)nc3)cc(-c3cc(CNCCO)ccn3)c2s1 [Compound 196, 1-ethyl-3-[7-[4-[(2-hydroxyethylamino)methyl]-2-pyridyl]-5-[2-(1-hydroxy-1-methyl-ethyl)pyrimidin-5-yl]-1,3-benzothiazol-2-yl]urea] | – | – | – | 2 µg/mL (≈ 3.94 µM) |
